Converted amounts (≈) assume the structure as drawn. Each block holds one compound with its values, some of them ahead of it.
Key:
Experiment in all cases: MIC, broth microdilution
Format in all cases: cell-based
[1] = system: CRKP3; conditions: Klebsiella pneumoniae, MHB, 1 × 10^6 CFU/ml, 16–18 h, 37°C, independent triplicates
Description: (§1) The MIC of BMAP‐27B and other antibiotics was determined using the broth microdilution method, following the guidelines established by the Clinical and Laboratory Standards Institute (CLSI). Briefly, the bacterial cultures were grown to the logarithmic growth phase and subsequently diluted in Mueller–Hinton broth (MHB) to achieve a final concentration of 1 × 10^6 CFU/ml. BMAP‐27B and the other antibiotics were prepared in twofold serial dilutions in MHB and mixed with an equal volume of bacterial suspension in 96‐well polypropylene microtiter plates.

[2] = system: Salmonella SL1344; conditions: MHB, 1 × 10^6 CFU/ml, 16–18 h, 37°C, independent triplicates
Description: as §1

[3] = system: CRKP4; conditions: Klebsiella pneumoniae, MHB, 1 × 10^6 CFU/ml, 16–18 h, 37°C, independent triplicates
Description: as §1

[4] = system: PREC2; conditions: Escherichia coli, MHB, 1 × 10^6 CFU/ml, 16–18 h, 37°C, independent triplicates
Description: as §1

[5] = system: CRKP5; conditions: Klebsiella pneumoniae, MHB, 1 × 10^6 CFU/ml, 16–18 h, 37°C, independent triplicates
Description: as §1

[6] = system: En. faecium (Clinical; MDR; pig, faeces), upper row; conditions: Enterococcus faecium, En. faecium clinical MDR isolate, MHB, 16–18 h, 37°C, independent triplicates
Description: as §1

[7] = system: CREC3; conditions: Escherichia coli, MHB, 1 × 10^6 CFU/ml, 16–18 h, 37°C, independent triplicates
Description: as §1

[8] = system: CRAB1; conditions: Acinetobacter baumannii, MHB, 1 × 10^6 CFU/ml, 16–18 h, 37°C, independent triplicates
Description: as §1

[9] = system: PREC1; conditions: Escherichia coli, MHB, 1 × 10^6 CFU/ml, 16–18 h, 37°C, independent triplicates
Description: as §1

[10] = system: CRKP2; conditions: Klebsiella pneumoniae, MHB, 1 × 10^6 CFU/ml, 16–18 h, 37°C, independent triplicates
Description: as §1

[11] = system: P. aeruginosa UCBPP-PA14; conditions: Pseudomonas aeruginosa, MHB, 1 × 10^6 CFU/ml, 16–18 h, 37°C, independent triplicates
Description: as §1

[12] = system: PRCB1; conditions: Citrobacter, MHB, 1 × 10^6 CFU/ml, 16–18 h, 37°C, independent triplicates
Description: as §1

[13] = system: CRCB1; conditions: Citrobacter, MHB, 1 × 10^6 CFU/ml, 16–18 h, 37°C, independent triplicates
Description: as §1

[14] = system: CRCB2; conditions: Citrobacter, MHB, 1 × 10^6 CFU/ml, 16–18 h, 37°C, independent triplicates
Description: as §1

[15] = system: CRKP6; conditions: Klebsiella pneumoniae, MHB, 1 × 10^6 CFU/ml, 16–18 h, 37°C, independent triplicates
Description: as §1

[16] = system: CRKP1; conditions: Klebsiella pneumoniae, MHB, 1 × 10^6 CFU/ml, 16–18 h, 37°C, independent triplicates
Description: as §1

[17] = system: CRAB2; conditions: Acinetobacter baumannii, MHB, 1 × 10^6 CFU/ml, 16–18 h, 37°C, independent triplicates
Description: as §1

[18] = system: CREC1; conditions: Escherichia coli, MHB, 1 × 10^6 CFU/ml, 16–18 h, 37°C, independent triplicates
Description: as §1

[19] = system: CREC4; conditions: Escherichia coli, MHB, 1 × 10^6 CFU/ml, 16–18 h, 37°C, independent triplicates
Description: as §1

[20] = system: CREC6; conditions: Escherichia coli, MHB, 1 × 10^6 CFU/ml, 16–18 h, 37°C, independent triplicates
Description: as §1

[21] = system: S. aureus ATCC; conditions: Staphylococcus aureus, MHB, 1 × 10^6 CFU/ml, 16–18 h, 37°C, independent triplicates
Description: as §1

[22] = system: En. faecium (Clinical; MDR; pig, faeces), lower row; conditions: Enterococcus faecium, En. faecium clinical MDR isolate, MHB, 16–18 h, 37°C, independent triplicates
Description: as §1

[23] = system: CREC7; conditions: Escherichia coli, MHB, 1 × 10^6 CFU/ml, 16–18 h, 37°C, independent triplicates
Description: as §1

[24] = system: CREC2; conditions: Escherichia coli, MHB, 1 × 10^6 CFU/ml, 16–18 h, 37°C, independent triplicates
Description: as §1

[25] = system: CRCB3; conditions: Citrobacter, MHB, 1 × 10^6 CFU/ml, 16–18 h, 37°C, independent triplicates
Description: as §1

[26] = system: PREC3; conditions: Escherichia coli, MHB, 1 × 10^6 CFU/ml, 16–18 h, 37°C, independent triplicates
Description: as §1

[27] = system: CREC5; conditions: Escherichia coli, MHB, 1 × 10^6 CFU/ml, 16–18 h, 37°C, independent triplicates
Description: as §1

[28] = system: P. aeruginosa UCBPP-PA01; conditions: Pseudomonas aeruginosa, UCBPPPA01, MHB, 1 × 10^6 CFU/ml, 16–18 h, 37°C, independent triplicates
Description: as §1

SMILES: CC(C)(O/N=C(\C(=O)N[C@@H]1C(=O)N2C(C(=O)[O-])=C(C[n+]3ccccc3)CS[C@H]12)c1csc(N)n1)C(=O)O [CAZ, ceftazidime]
- MIC [1]: > 32 mg/L
- MIC [2]: < 1 mg/L
- MIC [3]: > 32 mg/L
- MIC [4]: > 32 mg/L
- MIC [5]: > 32 mg/L
- MIC [6]: > 32 mg/L
- MIC [7]: > 32 mg/L
- MIC [8]: > 32 mg/L
- MIC [9]: > 32 mg/L
- MIC [10]: > 32 mg/L
- MIC [11]: 2 mg/L (≈ 3.66 µM)
- MIC [12]: > 32 mg/L
- MIC [13]: > 32 mg/L
- MIC [14]: > 32 mg/L
- MIC [15]: > 32 mg/L
- MIC [16]: > 32 mg/L
- MIC [17]: > 32 mg/L
- MIC [18]: > 32 mg/L
- MIC [19]: > 32 mg/L
- MIC [20]: > 32 mg/L
- MIC [21]: 4 mg/L (≈ 7.32 µM)
- MIC [22]: > 32 mg/L
- MIC [23]: > 32 mg/L
- MIC [24]: > 32 mg/L
- MIC [25]: > 32 mg/L
- MIC [26]: 16 mg/L (≈ 29.3 µM)
- MIC [27]: > 32 mg/L
- MIC [28]: 2 mg/L (≈ 3.66 µM)

SMILES: CN(C)[C@@H]1C(O)=C(C(N)=O)C(=O)[C@@]2(O)C(O)=C3C(=O)c4c(O)cccc4[C@@](C)(O)[C@H]3C[C@@H]12 [TET, tetracycline]
- MIC [1]: > 32 mg/L
- MIC [2]: 4 mg/L (≈ 9 µM)
- MIC [3]: > 32 mg/L
- MIC [4]: > 32 mg/L
- MIC [5]: > 32 mg/L
- MIC [6]: > 32 mg/L
- MIC [7]: > 32 mg/L
- MIC [8]: > 32 mg/L
- MIC [9]: > 32 mg/L
- MIC [10]: > 32 mg/L
- MIC [11]: 16 mg/L (≈ 36 µM)
- MIC [12]: > 32 mg/L
- MIC [13]: > 32 mg/L
- MIC [14]: > 32 mg/L
- MIC [15]: 32 mg/L (≈ 72 µM)
- MIC [16]: > 32 mg/L
- MIC [17]: > 32 mg/L
- MIC [18]: > 32 mg/L
- MIC [19]: > 32 mg/L
- MIC [20]: > 32 mg/L
- MIC [21]: < 1 mg/L
- MIC [22]: > 32 mg/L
- MIC [23]: > 32 mg/L
- MIC [24]: > 32 mg/L
- MIC [25]: > 32 mg/L
- MIC [26]: > 32 mg/L
- MIC [27]: > 32 mg/L
- MIC [28]: 16 mg/L (≈ 36 µM)

SMILES: NCC[C@H](O)C(=O)N[C@@H]1C[C@H](N)[C@@H](O[C@H]2O[C@H](CN)[C@@H](O)[C@H](O)[C@H]2O)[C@H](O)[C@H]1O[C@H]1O[C@H](CO)[C@@H](O)[C@H](N)[C@H]1O [AMK, amikacin]
- MIC [4]: 8 mg/L (≈ 13.7 µM)
- MIC [6]: 16 mg/L (≈ 27.3 µM)
- MIC [7]: 2 mg/L (≈ 3.42 µM)
- MIC [8]: > 32 mg/L
- MIC [9]: 2 mg/L (≈ 3.42 µM)
- MIC [13]: 4 mg/L (≈ 6.83 µM)
- MIC [17]: > 32 mg/L
- MIC [18]: 2 mg/L (≈ 3.42 µM)
- MIC [19]: 4 mg/L (≈ 6.83 µM)
- MIC [20]: 16 mg/L (≈ 27.3 µM)
- MIC [21]: 8 mg/L (≈ 13.7 µM)
- MIC [23]: 2 mg/L (≈ 3.42 µM)
- MIC [24]: 4 mg/L (≈ 6.83 µM)
- MIC [25]: 8 mg/L (≈ 13.7 µM)
- MIC [26]: 2 mg/L (≈ 3.42 µM)
- MIC [28]: 2 mg/L (≈ 3.42 µM)

Other lines, results leading:

- MIC [1]: > 32 mg/L
- MIC [2]: < 1 mg/L
- MIC [3]: 16 mg/L (≈ 53.4 µM)
- MIC [4]: < 1 mg/L
- MIC [5]: 4 mg/L (≈ 13.4 µM)
- MIC [6]: > 32 mg/L
- MIC [7]: 32 mg/L (≈ 107 µM)
- MIC [8]: > 32 mg/L
- MIC [9]: < 1 mg/L
- MIC [10]: 32 mg/L (≈ 107 µM)
- MIC [11]: 4 mg/L (≈ 13.4 µM)
- MIC [12]: < 1 mg/L
- MIC [13]: > 32 mg/L
- MIC [14]: 32 mg/L (≈ 107 µM)
- MIC [15]: 4 mg/L (≈ 13.4 µM)
- MIC [16]: 32 mg/L (≈ 107 µM)
- MIC [17]: > 32 mg/L
- MIC [18]: > 32 mg/L
- MIC [19]: > 32 mg/L
- MIC [20]: 32 mg/L (≈ 107 µM)
- MIC [21]: < 1 mg/L
- MIC [22]: > 32 mg/L
- MIC [23]: 32 mg/L (≈ 107 µM)
- MIC [24]: > 32 mg/L
- MIC [25]: 8 mg/L (≈ 26.7 µM)
- MIC [26]: < 1 mg/L
- MIC [27]: 32 mg/L (≈ 107 µM)
- MIC [28]: < 1 mg/L
SMILES: C[C@@H](O)[C@H]1C(=O)N2C(C(=O)O)=C(SCCN=CN)C[C@H]12 [IMP, imipenem]

- MIC [1]: > 32 mg/L
- MIC [2]: 8 mg/L (≈ 22.9 µM)
- MIC [3]: > 32 mg/L
- MIC [4]: > 32 mg/L
- MIC [5]: > 32 mg/L
- MIC [6]: 32 mg/L (≈ 91.6 µM)
- MIC [7]: > 32 mg/L
- MIC [8]: > 32 mg/L
- MIC [9]: > 32 mg/L
- MIC [10]: > 32 mg/L
- MIC [11]: > 32 mg/L
- MIC [12]: > 32 mg/L
- MIC [13]: > 32 mg/L
- MIC [14]: > 32 mg/L
- MIC [15]: > 32 mg/L
- MIC [16]: > 32 mg/L
- MIC [17]: > 32 mg/L
- MIC [18]: > 32 mg/L
- MIC [19]: > 32 mg/L
- MIC [20]: > 32 mg/L
- MIC [21]: 4 mg/L (≈ 11.4 µM)
- MIC [22]: > 32 mg/L
- MIC [23]: > 32 mg/L
- MIC [24]: > 32 mg/L
- MIC [25]: > 32 mg/L
- MIC [26]: > 32 mg/L
- MIC [27]: > 32 mg/L
- MIC [28]: > 32 mg/L
SMILES: CC1(C)S[C@@H]2[C@H](NC(=O)[C@H](N)c3ccccc3)C(=O)N2[C@H]1C(=O)O [AMP, ampicillin]

- MIC [2]: 4 mg/L (≈ 8.38 µM)
- MIC [4]: > 32 mg/L
- MIC [6]: 8 mg/L (≈ 16.8 µM)
- MIC [7]: > 32 mg/L
- MIC [8]: > 32 mg/L
- MIC [9]: > 32 mg/L
- MIC [11]: 2 mg/L (≈ 4.19 µM)
- MIC [17]: > 32 mg/L
- MIC [18]: > 32 mg/L
- MIC [19]: > 32 mg/L
- MIC [20]: > 32 mg/L
- MIC [21]: 2 mg/L (≈ 4.19 µM)
- MIC [22]: 32 mg/L (≈ 67 µM)
- MIC [24]: > 32 mg/L
- MIC [26]: 2 mg/L (≈ 4.19 µM)
SMILES: CNC(C)C1CCC(N)C(OC2C(N)CC(N)C(OC3OCC(C)(O)C(NC)C3O)C2O)O1 (centres unmarked) [GEN, gentamicin]

Source: paper PMC12207908, “The broad‐spectrum antimicrobial peptide BMAP‐27B potentiates carbapenems against NDM‐producing pathogens in food animals” (mLife, 2025)
